“Also recorded” adds a separate entry of the source. Where two headings read alike, the source gives them in different places.
What was measured:
[1] = tested on: primary culture of rat hepatocytes; assay: Effect of sesquiterpenes on DOX toxicity in hepatocytes, MTT test; conditions: 24 h; for Effect on DOX toxicity in hepatocytes at 0.5 µM DOX: 0.5 µM DOX + 12.5 µg/mL sesquiterpene; for Effect on DOX toxicity in hepatocytes at other DOX concentrations: DOX 0.25, 1, 2 µM + sesquiterpene
Experimental: (§2) The toxicity of DOX alone as well as combinations of DOX and sesquiterpene was tested in primary culture of rat hepatocytes. […] The number of viable cells was measured after 24 h exposition of cells to various concentrations of the tested compounds.
Data presented as percentage of control cells (=100%) represent the mean ± S.D. from 2 independent experiments with 6 parallels in each (↑ significant increase; ↓ significant decrease).
Pure commercially available sesquiterpenes and DOX were pre-dissolved in DMSO or in pure ethanol. The concentration of organic solvent in medium was 0.1%. The cells were exposed to various concentrations of the tested compounds in culture medium. The cells cultured in medium with pure DMSO or ethanol without tested compounds were used as control samples. DMSO (10%) served as a positive control in both the primary culture of hepatocytes and of CaCo-2 cells. […] The viability of the hepatocytes was tested using a MTT assay after 24 h expositions.
(§3) The mitochondria of living cells are able to reduce yellow MTT (3-(4,5-dimethylthiazol-2-yl)-2,5-diphenyltetrazolium bromide) to purple formazan. The cells were cultured in 96-well plates. After 24 h exposure, 25 µL of MTT solution (3 mg of MTT in 1 mL of PBS) were added to each well. The plates were incubated for an additional 2 h at 37 °C, at which time the medium was removed and the formed formazan was dissolved in 50 µL of 0.08 M HCl in isopropanol by 30 min shaking. The absorbance in each well was read at 570 and 690 nm using a spectrophotometer (Tecan Infinite M200).

CaCo-2 cells [2] = assay: DOX accumulation in CaCo-2 cells (UHPLC); type: cell-based, human; conditions: 3 h; for Effect on intracellular DOX concentration: DOX 6 µM + sesquiterpene 10 or 50 µg/mL
Experimental: The effect of sesquiterpenes on DOX accumulation in cells was also studied. Concentrations of DOX within cells after a 3-h incubation of CaCo-2 cells, hepatocytes with DOX alone and DOX + sesquiterpene combinations were analyzed. […] On the other hand, the addition of all sesquiterpenes to DOX led to a concentration-dependent increase of DOX concentration within CaCo-2 cells. […] CAO (at concentration 50 µg/mL) was able to enhance the intracellular DOX concentration in CaCo-2 cells at a rate of 3.6-times.
The suspension of CaCo-2 cells or hepatocytes (600 µL; density 5000 cells/100 µL) per well was set to a 12-well plate. After 48 h, 600 µL of solutions in medium of the tested substances were added. The cells were treated with DOX (6 µM) alone, or in combination with individual sesquiterpenes (10 or 50 µg/mL) for 3 h. At the end of the experiment, the medium was removed and cells were washed with 500 µL of PBS. One hundred µL of lysing buffer (25 mM Tris, 150 mM NaCl, 1% Triton, pH 7.4) were then added, at which time the cells were lysed for 15 min, then mixed with 300 µL of ice-cold methanol and centrifuged (10,000× g, 10 min, 4 °C). The supernatant was filtered through a 0.22 µm filter and the filtrate was used for analysis.
DOX was detected on an Agilent 1290 Series UHPLC chromatographic system (Agilent, Santa Clara, CA, USA) equipped with a Zorbax C18 Eclipse Plus (2.1 × 50 mm, 1.8 μm) column with a 1290 Infinity inline filter (Agilent). The HPLC method used by was adapted to a UHPLC system: Isocratic elution of 1.0 mL/min by 0.1% formic acid in water and acetonitrile in ratio 76:24; 30 °C thermostated column compartment; fluorescence detection at λex = 480 nm and λem = 560 nm. Chemical standards were purchased from Toronto Research Chemicals (Toronto, ON, Canada).

CaCo-2 cells [3] = assay: Combination of DOX and sesquiterpenes in CaCo-2 cells, NRU test, combination indexes (CalcuSyn); type: cell-based, human; conditions: CaCo-2, 72 h; for Combined effect with DOX (combination index, CI): NRU, CalcuSyn
Experimental: Concentrations of DOX and sesquiterpenes were selected according to the Chou-Talalay Method. After 72-h incubation, the number of viable cells was assayed using NRU. […] When DOX was used in combinations with individual sesquiterpenes, a significant increase of DOX efficacy was observed.
With the aim of evaluating and quantifying the combined effect of DOX and sesquiterpenes, combination indexes were calculated using CalcuSyn (ver. 1.1, Biosoft, Cambridge, UK); the plot of combination indexes (CI) vs. fractions of dead cells (Fa) is presented in Figure 5. […] It is important to emphasize that synergy of anticancer agents at high effect levels (Fa > 0.8) is more relevant to therapy than at low levels.
Figure 5 Combination indexes (CI) of DOX and sesquiterpenes in dependence on fraction of affected CaCo-2 cells (Fa). Incubations lasted for 72 h. Data were calculated using CalcuSyn software.
The cells were cultured in 96‑well plates. After 72 h exposure, the medium was removed and 100 µL of neutral red-containing medium was added into each well, at which time the plates were incubated for an additional 3 h at 37 °C. The cells were washed with 100 µL of PBS, then fixed in a solution of 0.5% formaldehyde/1% calcium chloride for 15 min. The neutral red dye was extracted from the viable cells with a solvent (50% ethanol/1% acetic acid) by shaking for 30 min at room temperature. The absorbance of solubilized dye was measured using a spectrophotometer (Infinite M200, Tecan, Männedorf, Switzerland) at 540 nm. Each sample was assayed in 6 parallels and 3 independent experiments were performed. The viabilities of the treated cells were expressed as a percentage of untreated controls (100%). The effect of sesquiterpenes on DOX efficacy was evaluated using CalcuSyn software.

CaCo-2 cells [4] = assay: Antiproliferative effect in CaCo-2 cells, neutral red uptake (NRU) test; type: cell-based, human; conditions: for Inhibition of cancer cell proliferation: 0–50 µg/mL, 72 h; for IC50: Homo sapiens
Experimental: Firstly, the antiproliferative effect of five sesquiterpenes CAR, CAO, HUM, NER, VAL was tested in CaCo-2 cancer cells. The cells were incubated with individual sesquiterpenes in concentrations 0–50 µg/mL for 72 h. After incubation, a number of viable cells was assayed using a NRU test and IC50 values were calculated.
CaCo-2 cancer cells were incubated with DOX alone (concentrations 0.25, 0.5, 1, 2, 4 µM), with individual sesquiterpenes alone (concentrations 6.125, 12.5, 25, 50 µg/mL) and with DOX (concentrations 0.25, 0.5, 1, 2 µM) in combinations with each sesquiterpene (concentrations 6.125, 12.5, 25, 50 µg/mL). […] After 72-h incubation, the number of viable cells was assayed using NRU.
The human epithelial colorectal adenocarcinoma line CaCo-2 was purchased from ATCC (supplier for Czech Republic: LGC Standards, Lomianki, Poland). […] The CaCo-2 cells were cultured in MEM supplemented with 10% heat-inactivated FBS, 1% non-essential amino acid, 1.5% L-glutamine solution and 0.5% penicillin/streptomycin. Cells were grown in T-75 cm^2 culture flasks in a humidified atmosphere containing 5% CO2 at 37 °C.
Pure commercially available sesquiterpenes and DOX were pre-dissolved in DMSO or in pure ethanol. The concentration of organic solvent in medium was 0.1%. The cells were exposed to various concentrations of the tested compounds in culture medium. The cells cultured in medium with pure DMSO or ethanol without tested compounds were used as control samples. […] The number of viable CaCo-2 cells was assayed using the neutral red uptake test after 72 h expositions.
Data are presented as means ± S.D. of a given number of experiments. Statistical significance (evaluated using a one-way ANOVA) was acceptable to a level of p < 0.05. The concentration inducing a 50% decrease of cell viability as compared to control (IC50) was calculated using GraphPad Prism 6.0 nonlinear regression.

CaCo-2 cells [5] = assay: Intracellular ROS formation (H2DCF-DA) in CaCo-2 cells; type: cell-based, human; conditions: for Effect on ROS formation, sesquiterpene alone: 10 µg/mL; for Effect of DOX + sesquiterpene on ROS formation compared with DOX alone: DOX 1 µM + sesquiterpene 10 µg/mL
Description: (§1) To assess ROS generation in CaCo-2 cells or […], a measurement of 2′,7′-dichlorodihydrofluorescein-diacetate (H2DCF-DA) oxidation was used. This non-fluorescent reagent diffuses passively through the plasma membrane into the cell, where the acetate groups are cleaved by intracellular esterases. The compound can then be oxidized by ROS formed within the cell (particularly by hydroxyl radicals, •OH) to form fluorescent dichlorofluorescein (DCF), while the fluorescence intensity is proportional to the ROS level. CaCo-2 cells or hepatocytes (seeded in a 96-well plate at a density of 2500 cells/well) were washed by PBS buffer and loaded with 100 µL of the tested substances (individual sesquiterpenes, DOX alone, DOX + sesquiterpene combinations pre-dissolved in DMSO) in PBS buffer. After 12-h incubation, 100 µL of 5 μM H2DCF-DA were added. After another incubation of 30-min, fluorescence intensity was measured for 50 min at 37 °C using a microplate reader Tecan Infinite M200 at λex = 485 nm and λem = 525 nm. Cells treated with PBS only with pure DMSO (as a solvent) were used as control samples. The 3% H2O2 solution was used as a positive control.

[6] = tested on: primary culture of rat hepatocytes; assay: Viability of primary culture of rat hepatocytes, MTT test; conditions: 24 h; for Hepatotoxicity / viability of hepatocytes: sesquiterpene alone 0–50 µg/mL
Experimental: as §2
The rat hepatocytes were obtained from rat liver by the two-step collagenase method. Briefly, the liver was perfused with salt solution (0.14 M NaCl, 5.0 mM KCl, 0.8 mM MgSO4) in Na^+/K^+ phosphate buffer (0.2 mM, pH 7.4) containing a calcium binding component (0.4 mM EGTA). […] The collagenase perfusion was proceeded for 5–6 min. After perfusion the liver was transferred to a medium containing BSA and the hepatocytes were released. The obtained suspension was filtered through a nylon mesh and centrifuged at 40× g for 5 min at 4 °C. The pellet was re-suspended in chilled buffer and the washing procedure was twice repeated. Finally, three million viable (75%–85%) cells in 3 mL of culture medium ISOM (1:1 mixture of Ham F12 and Williams’ E) were placed into 96-well plastic dishes. The fetal calf serum was added in the culture medium (5%). Cultures were maintained without the tested compounds for 4 h at 37 °C in a humid atmosphere of air and 5% CO2.
Pure commercially available sesquiterpenes and DOX were pre-dissolved in DMSO or in pure ethanol. The concentration of organic solvent in medium was 0.1%. The cells were exposed to various concentrations of the tested compounds in culture medium. The cells cultured in medium with pure DMSO or ethanol without tested compounds were used as control samples. […] The viability of the hepatocytes was tested using a MTT assay after 24 h expositions.
as §3

hepatocytes = assay: Intracellular ROS formation (H2DCF-DA) in hepatocytes; type: cell-based, rat; conditions: DOX 1 µM
Description: as §1

[7] = CaCo-2 cells, 72 h incubation, NRU test, concentrations 0–50 µg/mL, read-out: IC50

| SMILES | Effect on DOX toxicity in hepatocytes at 0.5 µM DOX [1] | Effect on DOX toxicity in hepatocytes at other DOX concentrations [1] | Effect on intracellular DOX concentration (CaCo-2 cells [2]) | Combined effect with DOX (combination index, CI) (CaCo-2 cells [3]) | Combined effect with DOX at lower Fa (CaCo-2 cells [3]; lower fraction of affected cells) | Inhibition of cancer cell proliferation (CaCo-2 cells [4]; CaCo-2 cells, NRU) | IC50 (CaCo-2 cells [4]; [7]) | Effect on ROS formation, sesquiterpene alone (CaCo-2 cells [5]) | Effect of DOX + sesquiterpene on ROS formation compared with DOX alone (CaCo-2 cells [5]) | Hepatotoxicity / viability of hepatocytes [6] | Effect on DOX toxicity in hepatocytes at DOX 0.25 and 2 µM ([1]; DOX 0.25 and 2 µM + sesquiterpene) | Enhancement of intracellular DOX concentration (CaCo-2 cells [2]; sesquiterpene 50 µg/mL, DOX 6 µM, vs DOX alone) | Combined effect with DOX at Fa > 0.8 (CaCo-2 cells [3]; higher number of cells affected (Fa > 0.8)) | Effect of DOX alone on ROS production (hepatocytes) | IC50 (CaCo-2 cells [4]; CaCo-2 cells, 72-h incubation, NRU, DOX alone, read-out: IC50 (antiproliferative effect of DOX)) | Effect of DOX alone on ROS production (CaCo-2 cells [5]; DOX 1 µM) | Hepatotoxicity of DOX alone ([6]; DOX 0.25–2 µM) | Effect on DOX toxicity in hepatocytes ([1]; DOX 0.25–2 µM + sesquiterpene 6.125–50 µg/mL) | IC50 (CaCo-2 cells [4]; Caco-2, 72 h) |
| --- | --- | --- | --- | --- | --- | --- | --- | --- | --- | --- | --- | --- | --- | --- | --- | --- | --- | --- | --- |
| C=CC(C)(O)CC/C=C(\C)CCC=C(C)C (racemic) [NER, (±)-trans-nerolidol] | increased DOX toxicity | did not influence DOX toxicity | more pronounced enhancement of DOX accumulation | significant synergistic effects with DOX | most synergistic effect on DOX | most effective; also recorded: inhibited the proliferation of CaCo-2 cancer cells | 28.7 ± 2.5 µg/mL | strong antioxidant | significant antioxidant effect | none of tested sesquiterpenes showed hepatotoxicity | – | – | – | – | – | – | – | – | – |
| C=C1CC[C@H]2O[C@]2(C)CC[C@@H]2[C@@H]1CC2(C)C [CAO, β-caryophyllene oxide] | – | – | more pronounced enhancement of DOX accumulation | significant synergistic effects with DOX | – | inhibited the proliferation of CaCo-2 cancer cells | > 50 µg/mL | pro-oxidative effects | increase the pro-oxidative effect of DOX | none of tested sesquiterpenes showed hepatotoxicity; also recorded: mildly increased the viability of hepatocytes in a concentration-dependent manner | significantly ameliorate DOX toxicity | 3.6 times | strongest | – | – | – | – | – | – |
| COc1cccc2c1C(=O)c1c(O)c3c(c(O)c1C2=O)C[C@@](O)(C(=O)CO)C[C@@H]3O[C@H]1C[C@H](N)[C@H](O)[C@H](C)O1 [DOX, doxorubicin, reference compound] | – | – | – | – | – | – | – | – | – | – | – | – | – | did not have a significant effect | 1900 nM | increased ROS production | marked hepatotoxicity | – | – |
| C/C1=C\CC/C(C)=C/CC(C)(C)/C=C/C1 [HUM, α-humulene] | – | – | – | acted rather additively | – | most effective; also recorded: inhibited the proliferation of CaCo-2 cancer cells | 24.4 ± 2.4 µg/mL | did not influence ROS formation | – | none of tested sesquiterpenes showed hepatotoxicity | – | – | – | – | – | – | – | did not affect DOX toxicity | – |
| C=C(C)[C@@H]1CCC2=CCC[C@@H](C)[C@]2(C)C1 [VAL, valencene] | increased DOX toxicity | did not influence DOX toxicity | – | significant synergistic effects with DOX | – | inhibited the proliferation of CaCo-2 cancer cells | – | pro-oxidative effects | increase the pro-oxidative effect of DOX | none of tested sesquiterpenes showed hepatotoxicity | – | – | – | – | – | – | – | – | 38.1 ± 2.4 µg/mL |

Source: article PMC6331978 (Molecules, 2015)
